These results are taken from patent US9340577B2, “HLA binding motifs and peptides and their uses” (priority 1992, dated 2016).

No end group written: not given here.

Holding throughout (test): biochemical
Test [1] concerns the target DRB1*0301 (Homo sapiens, UniProt P01903+P01911, A100K/A102G/A103R/A169T/F55Y/I96L/K41T/L162R/M171V/P40S/Q125H/Q178H/Q39Y/R42S/S66N/T106N/T262R/W38E/Y61H). Format: binding.
Test [2] addresses DRB3*0101 (Homo sapiens, UniProt P01903+P79483). Format: binding.
In test [3] the target is DRB1*1201 (Homo sapiens, UniProt P01903+P01911, A100R/A169T/D57E/D86V/F55L/H45Y/K41T/L162R/M171V/P40S/Q125H/Q178H/Q39Y/Q99D/R42G/S66L/T262R/V114A/V67L/W38E/Y59H/Y61H/Y89S). Format: binding.
Test [4] addresses DRB1*0802 (Homo sapiens, UniProt P01903+P01911, A100R/A103L/A169T/F76Y/H45Y/I96F/K41T/L162R/M171V/P40S/Q125H/Q178H/Q39Y/Q99D/R218S/R42G/S66Y/V115G/W38E). The test is classed as binding.
Test [5] has as its target DRB4*0101 (Homo sapiens, UniProt P01903+P13762, G164S). The test is classed as binding.
For test [6], the target named is DRB1*1101 (Homo sapiens, UniProt P01903+P01911, A100R/A169T/A87E/I96F/K41T/L162R/M171V/P40S/Q125H/Q178H/Q39Y/Q99D/R42S/S66Y/T262R/V115G/W38E). The note with it: Binding affinity DRB1 *1101.
The target in test [7] is DRB5*0101 (Homo sapiens, UniProt P01903+Q30154). Particulars: Binding affinity DRB5 *0101.
Test [8] addresses DRB1*0901 (Homo sapiens, UniProt P01903+P01911, A100R/A103E/D57H/D86V/F55Y/F60I/F76Y/I96F/K127E/L162R/M171V/P40D/Q125H/Q99R/R33Q/R42F/S133A/S66N/T210M/V115G/W38K/Y107V/Y59G/Y89S). The test is classed as binding.
The target of test [9] is DRB1*1302 (Homo sapiens, UniProt P01903+P01911, A100E/A169T/K41T/L162R/M171V/P40S/Q125H/Q178H/Q39Y/Q99D/R42S/S66N/T262R/V115G/W38E/Y61H). The test is classed as binding.
The target in test [10] is DR7 (DRB1*0701) (Homo sapiens, UniProt P01903+P01911, A100R/A102G/A103Q/D57E/D86V/E43K/F76Y/K127E/L162R/M171V/P40G/Q125H/Q99D/R33Q/R42Y/R54Q/S133A/S66F/T210M/V115G/Y107V/Y59L/Y89S). Format: binding.
In test [11] the target is DRB1*1501 (Homo sapiens, UniProt P01903+P01911). The test is classed as binding.

DRB1*0301, sequence (P01903 26-254 limits assumed, other chains not shown): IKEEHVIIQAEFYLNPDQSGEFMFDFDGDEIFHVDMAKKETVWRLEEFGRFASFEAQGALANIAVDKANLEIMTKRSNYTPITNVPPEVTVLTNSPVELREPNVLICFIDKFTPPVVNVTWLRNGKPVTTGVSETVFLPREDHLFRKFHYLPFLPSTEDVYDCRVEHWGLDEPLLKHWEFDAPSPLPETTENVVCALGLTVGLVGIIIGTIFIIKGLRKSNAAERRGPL
DRB1*1302, sequence (P01903 26-254 limits assumed, other chains not shown): as above
DRB1*1101, sequence (P01903 26-254 limits assumed, other chains not shown): as above

For the compound `CC(C)C[C@H](NC(=O)[C@@H](NC(=O)CN)C(C)C)C(=O)N[C@H](C(=O)N[C@@H](Cc1c[nH]cn1)C(=O)N1CCC[C@H]1C(=O)N[C@@H](CCC(N)=O)C(=O)N[C@@H](Cc1c[nH]c2ccccc12)C(=O)N[C@H](C(=O)N[C@@H](CC(C)C)C(=O)N[C@H](C(=O)N[C@@H](C)C(=O)N[C@@H](C)C(=O)N[C@@H](Cc1c[nH]cn1)C(=O)N[C@@H](CS)C(=O)O)[C@@H](C)O)C(C)C)C(C)C` [Peptide 68.0063], the half-inhibitory concentration (IC50) in [1] was above 20 µM; in test [2] it was above 20 µM; in test [3], 7.49 µM.
Take EVFFQRLGIASGRAR [Peptide 68.0115]: the IC50 in test [1] was above 20 µM; in test [2], above 20 µM; in [3], 2.94 µM.
As to `CC[C@H](C)[C@H](NC(=O)[C@@H]1CCCN1C(=O)[C@H](CC(N)=O)NC(=O)[C@@H](N)Cc1c[nH]c2ccccc12)C(=O)N[C@@H](CC(C)C)C(=O)N[C@@H](CC(C)C)C(=O)N[C@@H](Cc1c[nH]c2ccccc12)C(=O)N[C@@H](CCC(N)=O)C(=O)N1CCC[C@H]1C(=O)N[C@H](C(=O)N1CCC[C@H]1C(=O)N[C@H](C(=O)N[C@@H](Cc1c[nH]cn1)C(=O)N[C@H](C(=O)N[C@H](C(=O)O)C(C)C)[C@@H](C)O)C(C)C)[C@@H](C)CC` [Peptide 68.0035], the IC50 is above 20 µM in test [4], above 20 µM in test [1], above 20 µM in [2] and 5.69 µM in [3].
Take `CSCC[C@H](NC(=O)[C@H](CC(=O)O)NC(=O)[C@H](Cc1ccc(O)cc1)NC(=O)[C@H](CC(C)C)NC(=O)[C@@H]1CCCN1C(=O)[C@H](Cc1c[nH]cn1)NC(=O)[C@@H]1CCCN1C(=O)[C@H](Cc1ccccc1)NC(=O)[C@H](CO)NC(=O)[C@H](Cc1c[nH]cn1)NC(=O)[C@H](CO)NC(=O)[C@@H](NC(=O)[C@H](CCC(N)=O)NC(=O)[C@H](Cc1ccccc1)NC(=O)[C@@H](N)C(C)C)C(C)C)C(=O)O` [Peptide 68.0070]: the IC50 in [5] was above 20 µM; in test [1], above 20 µM; in test [2], above 20 µM; in test [3] it was 2.48 µM.
For NGVLQGITSWGPEPC [Peptide 68.0017], the IC50 in test [4] was above 20 µM; in test [6], above 20 µM; in test [1], 8.43 µM; in test [7] it was above 20 µM; in [8], above 20 µM; in test [2], above 20 µM. The IC50 in [9] and in test [3] was above 20 µM throughout.
For the compound `CC(C)C[C@H](NC(=O)[C@@H](NC(=O)[C@H](CCC(N)=O)NC(=O)[C@H](Cc1c[nH]c2ccccc12)NC(=O)[C@@H]1CCCN1C(=O)[C@H](CCC(N)=O)NC(=O)[C@@H](N)CO)C(C)C)C(=O)N[C@H](C(=O)N[C@@H](C)C(=O)N[C@@H](CO)C(=O)N[C@@H](CCCNC(=N)N)C(=O)NCC(=O)N[C@@H](CCCNC(=N)N)C(=O)N[C@@H](C)C(=O)N[C@H](C(=O)O)C(C)C)C(C)C` [Peptide 68.0061], the IC50 in test [1] is above 20 µM; in test [2], above 20 µM; in test [3], 8.78 µM.
For the compound `CC[C@H](C)[C@H](NC(=O)[C@@H]1CCCN1)C(=O)N[C@@H](CC(C)C)C(=O)N[C@@H](CC(C)C)C(=O)N[C@@H](Cc1c[nH]c2ccccc12)C(=O)N[C@@H](CCC(N)=O)C(=O)N1CCC[C@H]1C(=O)N[C@H](C(=O)N1CCC[C@H]1C(=O)N[C@H](C(=O)N[C@@H](Cc1c[nH]cn1)C(=O)N[C@H](C(=O)N[C@H](C(=O)N1CCC[C@H]1C(=O)N[C@@H](CC(C)C)C(=O)O)C(C)C)[C@@H](C)O)C(C)C)[C@@H](C)CC` [Peptide 68.0037], the IC50 in test [4] is above 20 µM; in test [1], above 20 µM; in test [7], above 20 µM; in test [2], above 20 µM; in test [3], 2.37 µM.
Consider `CC[C@H](C)[C@H](NC(=O)[C@H](Cc1c[nH]c2ccccc12)NC(=O)[C@@H](NC(=O)[C@@H](N)C(C)C)[C@@H](C)O)C(=O)NCC(=O)N[C@@H](C)C(=O)N[C@@H](C)C(=O)N1CCC[C@H]1C(=O)N[C@@H](CC(C)C)C(=O)N[C@H](C(=O)N[C@@H](CC(C)C)C(=O)N[C@@H](CO)C(=O)N[C@@H](CCCNC(=N)N)C(=O)N[C@H](C(=O)N[C@H](C(=O)O)C(C)C)[C@@H](C)CC)[C@@H](C)CC` [Peptide 68.0060], for which the IC50 was above 20 µM in [1], above 20 µM in test [2] and 0.818 µM in test [3].
Take `CC[C@H](C)[C@H](NC(=O)CNC(=O)[C@H](Cc1ccc(O)cc1)NC(=O)[C@H](CC(C)C)NC(=O)[C@H](CO)NC(=O)[C@H](CC(C)C)NC(=O)[C@H](CC(C)C)NC(=O)[C@H](CO)NC(=O)[C@@H](N)CC(C)C)C(=O)N[C@@H](Cc1c[nH]cn1)C(=O)N[C@@H](CCCCN)C(=O)N[C@@H](CCC(N)=O)C(=O)N[C@@H](CCCCN)C(=O)N[C@@H](CCC(=O)O)C(=O)N[C@@H](CCCCN)C(=O)O` [Peptide 68.0045]: the IC50 in test [10] was above 20 µM; in test [1], above 20 µM; in [2], above 20 µM; in [9], above 20 µM; in [3], 0.647 µM.
In the case of `CC[C@H](C)[C@H](NC(=O)[C@@H](NC(=O)[C@@H]1CCCN1C(=O)CN)C(C)C)C(=O)N1CCC[C@H]1C(=O)N[C@@H](CCC(N)=O)C(=O)N[C@@H](CC(=O)O)C(=O)N[C@@H](Cc1c[nH]c2ccccc12)C(=O)N[C@@H](CO)C(=O)N[C@H](C(=O)N[C@@H](CCC(=O)O)C(=O)N[C@@H](CS)C(=O)N[C@@H](CCSC)C(=O)N[C@H](C(=O)N[C@H](C(=O)O)[C@@H](C)O)[C@@H](C)O)[C@@H](C)O` [Peptide 68.0156], the IC50 in [1], in [2] and in [3] was above 20 µM in each case.
With `CC[C@H](C)[C@H](NC(=O)[C@H](CC(=O)O)NC(=O)[C@H](Cc1c[nH]cn1)NC(=O)[C@@H](NC(=O)[C@@H](NC(=O)[C@@H](NC(=O)[C@H](CCC(N)=O)NC(=O)[C@H](CC(C)C)NC(=O)[C@H](CCC(=O)O)NC(=O)[C@@H](NC(=O)[C@H](CS)NC(=O)[C@@H](N)CC(C)C)[C@@H](C)O)[C@@H](C)O)[C@@H](C)O)[C@@H](C)CC)C(=O)N[C@H](C(=O)N[C@@H](CC(C)C)C(=O)N[C@@H](CCC(=O)O)C(=O)O)[C@@H](C)CC` [Peptide 1543.24], the IC50 in [4] is above 20 µM; in [6], above 20 µM; in test [1] it was 0.08 µM; in test [7] it was above 20 µM; in test [8], above 20 µM; in test [2], above 20 µM. In addition, the IC50 in test [11] and in test [3] was above 20 µM throughout.
As to `CC[C@H](C)[C@H](NC(=O)[C@@H]1CCCN1C(=O)[C@@H](N)CC(N)=O)C(=O)N[C@@H](CC(C)C)C(=O)N[C@@H](CC(C)C)C(=O)N[C@@H](Cc1c[nH]c2ccccc12)C(=O)N[C@@H](CCC(N)=O)C(=O)N1CCC[C@H]1C(=O)N[C@H](C(=O)N1CCC[C@H]1C(=O)N[C@H](C(=O)N[C@@H](Cc1c[nH]cn1)C(=O)N[C@H](C(=O)N[C@H](C(=O)N1CCC[C@H]1C(=O)O)C(C)C)[C@@H](C)O)C(C)C)[C@@H](C)CC` [Peptide 68.0036], the half-inhibitory concentration (IC50) in [1] is above 20 µM; in test [7], above 20 µM; in test [2] it was above 20 µM; in test [3] it was 0.612 µM.
Take `CC(C)C[C@H](NC(=O)[C@H](Cc1ccccc1)NC(=O)CNC(=O)[C@H](CC(C)C)NC(=O)[C@H](CO)NC(=O)[C@H](CC(C)C)NC(=O)[C@H](CO)NC(=O)[C@H](C)NC(=O)[C@H](C)NC(=O)[C@H](CCCNC(=N)N)NC(=O)[C@H](C)NC(=O)[C@H](CC(C)C)NC(=O)[C@H](CC(C)C)NC(=O)[C@H](CC(C)C)NC(=O)[C@@H]1CCCN1)C(=O)O` [Peptide 68.0021]: the IC50 in test [1] was above 20 µM; in [2], above 20 µM; in [3], 1.51 µM.
